Test results from patent US20230285399A1, “Compound for the treatment and prophylaxis of a lipofuscin-associated disease and/or a disease associated with aged oxidized melanin” (EBERHARD KARLS UNIVERSITAET TUEBINGEN MEDIZINISCHE FAKULTAET, priority 2020, published 2023).
“Also recorded” adds a separate entry of the source.

Key:
pigmented Abca^4−/− mice [1] = conditions: mouse, in vivo
function of the retina = conditions: mouse, in vivo
pigmented Abca^4−/− mice [2] = assay: Removal of lipofuscin from RPE with SIN-1, fluorescence microscopy (SW-AF, NIR-AF) of semi-thin eye sections; format: in vivo
Description: Pigmented WT mice (12952), pigmented Abca^4-/- mice (12954/SvJae-Abca4[…] albino Abca^4-/- mice^(BALB/c-Abca4tm1Ght) (Stargardt mice) were used in this work. WT mice were purchased from Harlan Laboratories ([…], UK), the knock-out strains were bred in the inventor's in-house facility. Light cycling was 12 h light (approximately 50 lx in cages)/12 h dark, food and water were available ad libitum. Animals were anesthetized by i.p. injection of a mix of fentanyl (0.05 mg/kg body weight), midazolam (5.0 mg/kg body weight) and medetomidine (0.50 mg/kg body weight). […] The mice were 2 years old. The left eyes remained untreated as controls. The mice were killed 48 hours after the injections and the eyes were […]. Mouse eyes were fixed, embedded in epon resin and sectioned according to standard procedures. For fluorescence analysis, post-fixation and staining with heavy metals was omitted. […] Filter sets were a custom made lipofuscin filter set (excitation 370/36 nm, emission 575/15, 400 nm beam splitter) for short wavelength-autofluorescence (SW-AF) and a commercial Cy7 filter set (excitation 708/75 nm, emission 809/81 nm, 757 nm beam splitter) for NIR-AF (Near infrared AF), respectively. The lipofuscin filter set is designed to fit the reported excitation and emission maximums for lipofuscin. Binning x2 was applied for all images and acquisition times, as well as microscope and software settings were held constant for any set of samples to allow comparison of fluorescence intensities. If indicated, images with low AF intensities were post-processed with the Auto adjust colors function of the […] software to allow the localization of weak AF signals. This function enhances the contrast by redefining the darkest pixel as pure black and the brightest pixel as pure white in the histogram on a channel-by-channel basis. Fluorescence intensities were determined using Fiji software. Regions of interest were determined in fluorescence and BF images using the default threshold, and area and integrated optical density (IOD) of the region of interest were measured. […] Student's t-test with JMP 13 software (SAS, Cary, NC, USA) was used for statistical analysis. P<0·05 was considered statistically significant.

albino Abca^4−/− mice [3] = assay: Removal of lipofuscin from RPE with SIN-1, fluorescence microscopy (SW-AF) of semi-thin eye sections; format: in vivo; conditions: 130 μg SIN-1 into the right eye, 48 hours, vs untreated eyes
Description: Pigmented WT mice (12952), pigmented Abca^4-/- mice (12954/SvJae-Abca4[…] albino Abca^4-/- mice^(BALB/c-Abca4tm1Ght) (Stargardt mice) were used in this work. WT mice were purchased from Harlan Laboratories ([…], UK), the knock-out strains were bred in the inventor's in-house facility. Light cycling was 12 h light (approximately 50 lx in cages)/12 h dark, food and water were available ad libitum. Animals were anesthetized by i.p. injection of a mix of fentanyl (0.05 mg/kg body weight), midazolam (5.0 mg/kg body weight) and medetomidine (0.50 mg/kg body weight). […] The mice were 2 years old. The left eyes remained untreated as controls. The mice were killed 48 hours after the injections and the eyes were […]. Mouse eyes were fixed, embedded in epon resin and sectioned according to standard procedures. For fluorescence analysis, post-fixation and staining with heavy metals was omitted. […] Binning x2 was applied for all images and acquisition times, as well as microscope and software settings were held constant for any set of samples to allow comparison of fluorescence intensities. […] Fluorescence intensities were determined using Fiji software. Regions of interest were determined in fluorescence and BF images using the default threshold, and area and integrated optical density (IOD) of the region of interest were measured. […]

pigmented Abca^4−/− mice [4] = assay: Combination of SIN-1 with riboflavin, quantification of fluorescent lipofuscin granules; format: in vivo; conditions: 130 μg SIN-1 alone or with 80 μg Riboflavin, intravitreal, 48 hours; 100% is stated as locally
albino Abca^4−/− mice [5] = assay: Analysis of degradation products from lipofuscin (bisretinoids) after SIN-1 by HPLC; format: in vivo; conditions: 130 μg SIN-1 into the right eye, 48 hours, 6 month old albino mice
Description: (§1) Seven albino and 6 pigmented mice were used. The left eyes remained untreated as control. After 48 hours the eyes from the Abca^4-/- mice were enucleated, immediately snap-frozen and stored at -80° C. for further processing. All the tissue preparation was made under dim red light and bisretinoids were extracted from the whole eyes and analyzed by HPLC following published protocols (Radu et al. 2004; Fang et al. 2020). Data were presented as picomoles per eye for A2E, iso-A2E, Total A2E or milli-absorbance (mAU) per eye for the other bisretinoids: […], dihydro-A2PE (A2PE-H2), and all-trans-RAL-dimer PE conjugates (at-RAL dimer-PE) as described (Radu et al. 2004).

pigmented Abca^4−/− mice [6] = assay: as above; format: in vivo; conditions: 130 μg SIN-1 into the right eye, 48 hours, 6 month old mice, whole eyes; stated for all mice
Description: as §1

[7] = SIN-1 treated eye vs untreated eye of the same mouse

`O=[N+]([O-])O[C@@H]1CO[C@H]2[C@@H]1OC[C@@H]2O` [IS5, Isosorbide mononitrate] was tested, and the “fluorescence of lipofuscin (fluorescence intensity, arbitrary units, FIG. 3)” value (pigmented Abca^4−/− mice [1]) was “removed the fluorescence of lipofuscin”, the “reduction of the amount of fluorescent lipofuscin granules” value (pigmented Abca^4−/− mice [1]) was 77% and the “ERG responses, treated vs untreated eye” value (function of the retina) was “no difference between the treated and the untreated eyes”.
In the case of `O=[N+]([O-])OC1COC2C(O[N+](=O)[O-])COC12` (centres unmarked) [Isoket, 3,6-bisnitrooxyhexahydrofuro[3,2-b]-furan], the “fluorescence of lipofuscin (fluorescence intensity, arbitrary units, FIG. 3)” value (pigmented Abca^4−/− mice [1]) is reported as “removed the fluorescence of lipofuscin”, the “number of lipofuscin granules in RPE cell layer under the fluorescence microscope (FIG. 4)” value (pigmented Abca^4−/− mice [1]) is reported as “reduced the number of lipofuscin granules clearly” and the “ERG responses, treated vs untreated eye” value (function of the retina) is reported as “no difference between the treated and the untreated eyes”.
With `N=c1c[n+](N2CCOCC2)[n-]o1` [SIN-1, 3-morpholinosydnonimine] the “lipofuscin content in the retinal pigment epithelium (RPE), recognized by the loss of SW-AF” value (pigmented Abca^4−/− mice [2]; 130 μg SIN-1 into the right eye, 48 hours, mean of 5 eyes vs 5 untreated eyes, mice 2 years old) was “significant (p<0.05) reduction”, the “NIR-AF fluorescence of the melanosomes (RPE)” value (pigmented Abca^4−/− mice [2]; 130 μg SIN-1 into the right eye, 48 hours, vs untreated eye) was “reduced but not significant (p>0.05); also recorded: somewhat diminished” and the “NIR-AF in the melanosomes of the choroidal melanocytes” value (pigmented Abca^4−/− mice [2]; [7]) was “seems to be not effected”. For the same compound, the “number of lipofuscin granules in SW-AF image of semi thin sections” value (pigmented Abca^4−/− mice [2]; [7]) was “reduced in number”, the “fluorescence of lipofuscin (SW-AF)” value (albino Abca^4−/− mice [3]) was “no effect” and the “removal of fluorescent lipofuscin granules from the RPE cells” value (pigmented Abca^4−/− mice [4]) was 75%. For the same compound, the “enhancement of lipofuscin metabolites in albino mice compared with pigmented mice” value (albino Abca^4−/− mice [5]) was “much lesser” and the “amount of degradation products of lipofuscin (A2E, iso-A2E, Total A2E, A2PE, A2PE-H2, at-RAL dimer-PE)” value (pigmented Abca^4−/− mice [6]) was “enhanced the amount of the degradation products of lipofuscin significantly”.
